Values quoted from earlier work in patent publication US9795640B2, “Controlling appetite, promoting weight loss, reducing body fat, and/or improving glucose tolerance” (VANDERBILT UNIVERSITY, priority 2011, dated 2017).

Details: intraperitoneal administration; for obesity: animals fed a high-fat diet

Row | SMILES | food intake | obesity
1 | CCCCCCCC/C=C\CCCCCCCC(=O)NCCO [OEA, N-oleoyl-ethanolamide] | markedly reduces | markedly reduces
2 | CCCCCCCCCCCCCCCCCC(=O)NCCO [SEA, N-stearoyl-ethanolamide] | markedly reduces | markedly reduces
